# Reference: patent US20250375525A1, “USE OF INDOCYANINE GREEN IN ANTIBACTERIAL OR BACTERICIDAL APPLICATION” (Buddhist Tzu Chi Medical Foundation, priority 2024, published 2025)
# Legend:
# HEK293 cells = test: MTT analysis of cell survival rate after ICG and near-infrared light irradiation; type: cell-based, human; settings: ICG at different concentrations + near-infrared light (780 nm) irradiation
# Description: (§1) After administering ICG and near-infrared light (780 nm) excitation and irradiation to HEK293 cells and HT-1080-1B3 cells, observing the cell survival rates of different concentration groups by MTT analysis.
# mycoplasma [1] = test: RT-PCR of mycoplasma DNA in HT1080-1B3 cells after ICG light treatment; type: cell-based; settings: HT-1080-1B3 cells (overexpress OATP1B3); 50 μg/mL indocyanine green + 780 nm laser, 10 minutes
# Protocol: (§2) (A) After HEK293 cells are treated with 50 μg/mL ICG and irradiated with near-infrared light excitation, the expression level of mycoplasma DNA in each group was observed by RT-PCR and DNA electrophoresis. (B) Results of DNA electrophoresis were quantitated by the Image J software (p-value: *<0.05, **<0.01, and ***<0.001).
# (§3) HT1080-1B3 and HEK293 cells were collected through trypsin-EDTA reaction and then seeded into a six-well plate at a cell number of 3×10^5 cells/well. The next day, a working concentration of 50 μg/mL of ICG was added to each well, and the reaction took place in the dark at 37° C. for 1 hour. After the reaction was completed, the cells were irradiated with near-infrared light of 780 nm wavelength for 10 minutes, the supernatant was removed, and the cells were washed twice with PBS. Then, the cells were collected into a 1.5 mL test tube with trypsin-EDTA, 100 μL KAPA rapid extraction buffer was added to the test tube, and the test tube was placed in a dry bath at 75° C. for 10 minutes and at 95° C. for 5 minutes. Then, DNA samples were prepared according to the operating manual of the e-Myco™ VALID Mycoplasma PCR detection kit, and PCR reaction was performed by PCR instrument (Applied Biosystems) under setting conditions (30 cycles: 95° C./3 minutes, 95° C./15 seconds, 55° C./15 seconds, 72° C./20 seconds and 72° C./1 minute). […]
# mycoplasma [2] = test: DAPI staining of mycoplasma in HEK293 cells after ICG light treatment; type: cell-based; settings: 50 μg/mL ICG + 780 nm laser, 10 minutes
# Protocol: (§4) After HEK293 cells are treated with 50 μg/mL ICG and irradiated with near-infrared light excitation, the distribution of mycoplasma in each group was observed by DAPI staining (the red arrow indicates the expression position of mycoplasma). CTL: control group; −Laser: not excited by laser; +Laser: excited by laser.
# (§5) First, HT1080-1B3 and HEK293 cells were collected through trypsin-EDTA reaction and then seeded into a six-well plate at a cell number of 3×10^5 cells/well. The next day, a working concentration of 50 μg/mL of ICG was added to each well, and the reaction took place in the dark at 37° C. for 1 hour. After the reaction was completed, the cells were irradiated with near-infrared light of 780 nm wavelength for 10 minutes. The supernatant was removed, and the cells were washed twice with PBS. Then, a working concentration of 1 μg/ml DAPI was added to each well, and the reaction took place in the dark at room temperature for 15 minutes. Finally, washed twice with PBS, and the quantitative changes of stained mycoplasma chromosomes were observed under the UV light mode of an inverted fluorescence microscope (Nikon).
# HT-1080-1B3 cells = test: MTT analysis of cell survival rate after ICG and near-infrared light irradiation; type: cell-based; settings: ICG at different concentrations + near-infrared light (780 nm) irradiation
# Description: as §1
# mycoplasma [3] = test: DAPI staining of mycoplasma in HT1080-1B3 cells after ICG light treatment; type: cell-based; settings: HT-1080-1B3 cells (overexpress OATP1B3); 50 μg/mL indocyanine green + 780 nm laser, 10 minutes
# Protocol: as §4, with “HT1080-1B3” for “HEK293”
# as §5
# mycoplasma [4] = test: RT-PCR of mycoplasma DNA in HEK293 cells after ICG light treatment; type: cell-based; settings: 50 μg/mL ICG + 780 nm laser, 10 minutes
# Protocol: as §2, §3
compound,measurement,setting,value
"CC1(C)C(/C=C/C=C/C=C/C=C2\N(CCCCS(=O)(=O)O)c3ccc4ccccc4c3C2(C)C)=[N+](CCCCS(=O)(=O)[O-])c2ccc3ccccc3c21 [ICG, Indocyanine green]",cell survival rate (MTT analysis),HEK293 cells,no negative impact on cells
same,"expression level of mycoplasma DNA (RT-PCR, DNA electrophoresis)",mycoplasma [1],no expression level of mycoplasma DNA was observed
same,number of mycoplasma bacteria (DAPI staining),mycoplasma [2],significantly reduced
same,cell survival rate (MTT analysis),HT-1080-1B3 cells,no negative impact on cells
same,number of mycoplasma bacteria (DAPI staining),mycoplasma [3],disappears
same,"expression level of mycoplasma DNA (RT-PCR, DNA electrophoresis)",mycoplasma [4],significantly reduce
